Assay results from BindingDB's records for doi:10.1016/j.bmcl.2009.09.123 (Genomics Institute of The Novartis Research Foundation, 2009).

Tests used:
[1] = Inhibition of Tel-fused LCK expressed in mouse BAF3 cells
[2] = Inhibition of Tel-fused KDR expressed in mouse BAF3 cells
[3] = Inhibition of Tel-fused LYN expressed in mouse BAF3 cells
[4] = Inhibition of Tel-fused SRC expressed in mouse BAF3 cells

Row | IC50 [1] [nM] | IC50 [2] [nM] | IC50 [3] [nM] | IC50 [4] [nM] | Structure (SMILES)
1 | 275 | 245 | 468 | 1220 | Cc1ccc(C(=O)Nc2cccc(C(F)(F)F)c2)cc1Nc1nc2ccccc2n1-c1cc(NCCC#N)ncn1 [3-(1-(6-(2-cyanoethylamino)pyrimidin-4-yl)-1H-benzo[d]imidazol-2-ylamino)-4-methyl-N-(3-(trifluoromethyl)phenyl)benzamide]
2 | 52 | 243 | 140 | – | CCN(CC)CCCCNc1cc(-n2c(Nc3cc(C(=O)Nc4cccc(C(F)(F)F)c4)ccc3C)nc3ccccc32)ncn1 [3-(1-(6-(4-(diethylamino)butylamino)pyrimidin-4-yl)-1H-benzo[d]imidazol-2-ylamino)-4-methyl-N-(3-(trifluoromethyl)phenyl)benzamide]
3 | 406 | 1360 | 1320 | 1060 | CCN(CC)CCCCNc1cc(-n2c(Nc3cc(C(=O)Nc4cccc(C)c4)ccc3C)nc3ccccc32)ncn1 [3-(1-(6-(4-(diethylamino)butylamino)pyrimidin-4-yl)-1H-benzo[d]imidazol-2-ylamino)-4-methyl-N-m-tolylbenzamide]
4 | 38 | 249 | 134 | 556 | Cc1ccc(C(=O)Nc2cccc(C(F)(F)F)c2)cc1Nc1nc2ccccc2n1-c1cc(NCCCCN(C)C)ncn1 [3-(1-(6-(4-(dimethylamino)butylamino)pyrimidin-4-yl)-1H-benzo[d]imidazol-2-ylamino)-4-methyl-N-(3-(trifluoromethyl)phenyl)benzamide]
5 | 531 | 1500 | 1380 | 1270 | Cc1cccc(NC(=O)c2ccc(C)c(Nc3nc4ccccc4n3-c3cc(NCCCCN(C)C)ncn3)c2)c1 [3-(1-(6-(4-(dimethylamino)butylamino)pyrimidin-4-yl)-1H-benzo[d]imidazol-2-ylamino)-4-methyl-N-m-tolylbenzamide]
6 | 4460 | 8180 | 8010 | > 10000 | Cc1ccc(C(=O)Nc2cccc(C(F)(F)F)c2)cc1Nc1nc2ccccc2n1-c1ncnc(N)c1C [3-(1-(6-amino-5-methylpyrimidin-4-yl)-1H-benzo[d]imidazol-2-ylamino)-4-methyl-N-(3-(trifluoromethyl)phenyl)benzamide]
7 | 702 | 135 | > 10000 | > 10000 | Cc1cc(NC(=O)c2ccc(C)c(Nc3nc4ccccc4n3-c3cc(N)ncn3)c2)ccn1 [3-(1-(6-aminopyrimidin-4-yl)-1H-benzo[d]imidazol-2-ylamino)-4-methyl-N-(2-methylpyridin-4-yl)benzamide]
8 | 20 | 55 | 15 | > 10000 | Cc1ccc(C(=O)Nc2cccc(C(F)(F)F)c2)cc1Nc1nc2ccccc2n1-c1cc(N)ncn1 [3-(1-(6-aminopyrimidin-4-yl)-1H-benzo[d]imidazol-2-ylamino)-4-methyl-N-(3-(trifluoromethyl)phenyl)benzamide]
9 | 83 | 1020 | 1080 | 7170 | Cc1cccc(NC(=O)c2ccc(C)c(Nc3nc4ccccc4n3-c3cc(N)ncn3)c2)c1 [3-(1-(6-aminopyrimidin-4-yl)-1H-benzo[d]imidazol-2-ylamino)-4-methyl-N-m-tolylbenzamide]
10 | 2280 | 8820 | 5510 | 6170 | Cc1ccc(C(=O)Nc2ccccc2)cc1Nc1nc2ccccc2n1-c1cc(N)ncn1 [3-(1-(6-aminopyrimidin-4-yl)-1H-benzo[d]imidazol-2-ylamino)-4-methyl-N-phenylbenzamide]
11 | 47 | 92 | 100 | > 10000 | Cc1ccc(C(=O)Nc2cccc(OC(F)F)c2)cc1Nc1nc2ccccc2n1-c1cc(N)ncn1 [3-(1-(6-aminopyrimidin-4-yl)-1H-benzo[d]imidazol-2-ylamino)-N-(3-(difluoromethoxy)phenyl)-4-methylbenzamide]
12 | – | 296 | 126 | 606 | COCCNc1cc(-n2c(Nc3cc(NC(=O)c4cccc(C(F)(F)F)c4)ccc3C)nc3ccccc32)ncn1 [N-(3-(1-(6-(2-methoxyethylamino)pyrimidin-4-yl)-1H-benzo[d]imidazol-2-ylamino)-4-methylphenyl)-3-(trifluoromethyl)benzamide]
13 | 41 | 885 | 217 | – | CCN(CC)CCCCNc1cc(-n2c(Nc3cc(NC(=O)c4cccc(C(F)(F)F)c4)ccc3C)nc3ccccc32)ncn1 [N-(3-(1-(6-(4-(diethylamino)butylamino)pyrimidin-4-yl)-1H-benzo[d]imidazol-2-ylamino)-4-methylphenyl)-3-(trifluoromethyl)benzamide]
14 | 84 | 576 | – | 650 | Cc1ccc(NC(=O)c2cccc(Cl)c2)cc1Nc1nc2ccccc2n1-c1cc(N)ncn1 [N-(3-(1-(6-aminopyrimidin-4-yl)-1H-benzo[d]imidazol-2-ylamino)-4-methylphenyl)-3-chlorobenzamide]
15 | 890 | – | 595 | > 10000 | Cc1ccc(NC(=O)c2ccncc2Cl)cc1Nc1nc2ccccc2n1-c1cc(N)ncn1 [N-(3-(1-(6-aminopyrimidin-4-yl)-1H-benzo[d]imidazol-2-ylamino)-4-methylphenyl)-3-chloroisonicotinamide]
16 | – | – | – | 56 | Cc1ccc(NC(=O)c2ccncc2C(C)(C)C)cc1Nc1nc2ccccc2n1-c1cc(N)ncn1 [N-(3-(1-(6-aminopyrimidin-4-yl)-1H-benzo[d]imidazol-2-ylamino)-4-methylphenyl)-3-tert-butylisonicotinamide]
17 | 2700 | 9070 | 3300 | – | Cc1ccc(NC(=O)c2cccc(C(F)(F)F)c2)cc1Nc1nc2ccccc2n1-c1cc(Cl)ncn1 [N-(3-(1-(6-chloropyrimidin-4-yl)-1H-benzo[d]imidazol-2-ylamino)-4-methylphenyl)-3-(trifluoromethyl)benzamide]
18 | 238 | 941 | – | 903 | Cc1ccc(NC(=O)c2cccc(C(F)(F)F)c2)cc1Nc1nc2ccccc2n1-c1cc(NCCC2CCCN2)ncn1 (centres undefined) [N-(4-methyl-3-(1-(6-(2-(pyrrolidin-2-yl)ethylamino)pyrimidin-4-yl)-1H-benzo[d]imidazol-2-ylamino)phenyl)-3-(trifluoromethyl)benzamide]

Row | Structure (SMILES) | IC50 [1] [nM] | IC50 [2] [nM] | IC50 [3] [nM] | IC50 [4] [nM]
19 | Cc1cn(-c2cc(NC(=O)c3ccc(C)c(Nc4nc5ccccc5n4-c4cc(N)ncn4)c3)cc(C(F)(F)F)c2)cn1 [3-(1-(6-aminopyrimidin-4-yl)-1H-benzo[d]imidazol-2-ylamino)-4-methyl-N-(3-(4-methyl-1H-imidazol-1-yl)-5-(trifluoromethyl)phenyl)benzamide] | 14 | 20 | 28 | 107
20 | Cc1ccc(NC(=O)c2cc(C(C)(C)C)nn2C)cc1Nc1nc2ccccc2n1-c1cc(N)ncn1 [N-(3-(1-(6-aminopyrimidin-4-yl)-1H-benzo[d]imidazol-2-ylamino)-4-methylphenyl)-3-tert-butyl-1-methyl-1H-pyrazole-5-carboxamide] | 224 | 451 | – | 959
